US20260226048A1, “MULTI-CYCLIC IRAK AND FLT3 INHIBITING COMPOUNDS AND USES THEREOF” (CHILDREN'S HOSPITAL MEDICAL CENTER, priority 2023, published 2026)

Each compound was assayed against T1, FLT3 (Homo sapiens, UniProt P36888) (assay: Reaction Biology NanoBRET target engagement assay in HEK-293 cells, FLT3). Details: live HEK-293 cells transfected with Kinase-NanoLuc fusion, 1 hour.
T1 sequence (P36888 27-993): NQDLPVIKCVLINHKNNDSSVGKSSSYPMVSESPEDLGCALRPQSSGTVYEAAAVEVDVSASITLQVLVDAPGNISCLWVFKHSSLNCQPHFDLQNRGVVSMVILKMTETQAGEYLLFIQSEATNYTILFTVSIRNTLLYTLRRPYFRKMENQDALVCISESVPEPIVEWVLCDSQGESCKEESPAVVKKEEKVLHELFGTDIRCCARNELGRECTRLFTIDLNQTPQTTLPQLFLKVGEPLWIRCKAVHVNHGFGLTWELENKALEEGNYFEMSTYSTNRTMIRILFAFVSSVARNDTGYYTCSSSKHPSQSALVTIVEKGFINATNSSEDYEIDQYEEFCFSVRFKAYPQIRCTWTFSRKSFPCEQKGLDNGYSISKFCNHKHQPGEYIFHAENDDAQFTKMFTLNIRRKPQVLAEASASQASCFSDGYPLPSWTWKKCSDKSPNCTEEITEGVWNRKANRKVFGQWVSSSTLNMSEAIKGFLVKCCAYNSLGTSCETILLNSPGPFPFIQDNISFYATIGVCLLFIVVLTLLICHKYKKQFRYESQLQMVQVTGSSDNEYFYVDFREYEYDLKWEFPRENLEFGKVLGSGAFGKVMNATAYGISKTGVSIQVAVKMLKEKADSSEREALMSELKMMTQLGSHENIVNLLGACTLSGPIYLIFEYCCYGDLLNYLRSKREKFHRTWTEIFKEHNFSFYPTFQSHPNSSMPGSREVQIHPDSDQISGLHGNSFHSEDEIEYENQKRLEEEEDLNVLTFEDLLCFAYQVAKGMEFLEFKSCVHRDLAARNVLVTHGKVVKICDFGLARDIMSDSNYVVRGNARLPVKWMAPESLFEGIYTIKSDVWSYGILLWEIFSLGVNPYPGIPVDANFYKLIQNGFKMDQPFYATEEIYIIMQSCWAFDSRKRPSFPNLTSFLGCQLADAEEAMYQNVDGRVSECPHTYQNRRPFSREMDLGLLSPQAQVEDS
Type: cell-based
From the text: The NanoBRET assay measures kinase engagement in real time in the context of the intact cell. Unlike the previously described biochemical kinase assay methodology in Example 33, the NanoBRET assay measures the binding and activity characteristics under equilibrium conditions using full-length kinases in the presence of cellular concentrations of ATP in live, uncompromised cells. As such, the assay provides a more relevant assessment of kinase potency and selectivity that would be expected to be observed in the native cellular environment, where potency is often considerably lower than that observed in the isolated biochemical assays (Vasta, J. D. et al., (2018) Cell Chem. Biol. 25, 206-214). The assay uses a Kinase-NanoLuc® fusion vector expressing a kinase protein to which a luciferase tag has been added, a cell-permeant fluorescent NanoBRET™ tracer, a NanoLuc® substrate, and an extracellular NanoLuc® inhibitor. Upon expression of the luciferase-tagged kinase, cells will produce a strong BRET signal only in the presence of the NanoBRET™ tracer. The extracellular NanoLuc® inhibitor ensures that the BRET signal observed emanates only from live cells. Because the BRET signal has tight distance constraints, addition of the test compound will decrease the BRET signal if the compound competes with the NanoBRET™ tracer for binding to the kinase domain. Under the appropriate tracer conditions established by the manufacturer, quantitative intracellular affinity and relative potency can then be determined using Mass Action model equations.
HEK-293 cells were purchased from ATCC. FuGENEHD Transfection Reagent, Kinase-NanoLucfusion plasmids, Transfection Carrier DNA, NanoBRETTracers and dilution buffer, NanoBRETNano-Glo Substrate, Extracellular NanoLucInhibitor were obtained from Promega.
Assays were conducted following Promega assay protocol with some modifications. HEK-293 Cells were transiently transfected with Kinase-NanoLucFusion Vector DNA by FuGENEHD Transfection Reagent. Testing compounds were delivered into 384 well assay plate by Echo 550 (LabcyteInc, Sunnyvale, CA). Transfected cells were harvested and mixed with NanoBRETTracer Reagent and dispensed into 384 well plates and incubated at 37° C. in 5% C02 cell culture incubator for 1 hour. The NanoBRETNano-Glo Substrate plus Extracellular NanoLucInhibitor Solution were added into the wells of the assay plate and incubated for 2-3 minutes at room temperature. The donor emission wavelength (460 nm) and acceptor emission wavelength (600 nm) were measured in the EnVisionplate reader. The BRET Ratios were calculated. BRET Ratio=[(Acceptor sample÷Donor sample)−(Acceptor no-tracer control÷Donor no-tracer control)]. The IC50 values of compounds were calculated with Prism GraphPad program.
• 1). Cultivate HEK-293 cells (70-80% confluence) appropriately prior to assay. Trypsinize and collect HEK-293 cells. • 2). Prepare lipid: DNA complexes as follows: • a. Prepare a 10 μg/ml solution of DNA in Opti-MEM without serum that consists of the following ratios of carrier DNA and DNA encoding NanoLuc® fusion. 9.0 μg/mL of Transfection Carrier DNA, 1.0 μg/mL of NanoLuc fusion vector DNA and 1 mL of Opti-MEM without phenol red. Mix thoroughly. • b. Add 30 μl of FuGENE HD Transfection Reagent into each milliliter of DNA mixture to form lipid: DNA complex. • c. Mix by inversion 10 times. • d. Incubate at ambient temperature for 20 minutes to allow complexes to form. • 3). In a sterile, conical tube, mix 1 part of lipid:DNA complex with 20 parts of HEK-293 cells in suspension. Mix gently by inversion 5 times. • 4). Dispense cells+lipid:DNA complex into a sterile tissue culture dish and incubate for 22-24 hours.
Each test compound is delivered from the compound source plate to the wells of 384-well white NBS plate by Echo 550.
3. Preparation of Cells with NanoBRET™ Tracer Reagent • 1). […]

`CC(O)(c1ccc2ncc(-c3ccnc(N[C@@H]4CCCNC4)n3)n2c1)C(F)(F)F` (single isomer, unassigned) [Compound 22a] and `CC(O)(c1ccc2ncc(-c3ccnc(N[C@H]4CNCC[C@@H]4F)n3)n2c1)C(F)(F)F` (single isomer, unassigned) [Compound 25a] are within 1.5-fold of each other in IC50: 38 nM for the first, 40 nM for the second.

Compared with `CC(O)(c1ccc2ncc(-c3ccnc(N[C@@H]4CCCNC4)n3)n2c1)C(F)(F)F` (single isomer, unassigned) [Compound 23a], `CC(O)(c1ccc2ncc(-c3cncc(N[C@@H]4CCCNC4)n3)n2c1)C(F)(F)F` (single isomer, unassigned) [Compound 28a] is 990-fold higher in IC50: 3 nM for the first, 2960 nM for the second.

Compared with `CC(O)(c1ccc2ncc(-c3cncc(N[C@H]4CNCC[C@@H]4F)n3)n2c1)C(F)(F)F` (single isomer, unassigned) [Compound 31a], `CC(C)(O)c1ccc2ncc(-c3nc(N[C@H]4CNCC[C@@H]4F)ncc3F)n2c1` [Compound 46a, 2-(3-(5-fluoro-2-(((3S,4S)-4-fluoropiperidin-3-yl)amino)pyrimidin-4-yl)imidazo[1,2-a]pyridin-6-yl)propan-2-ol] is 18-fold lower in IC50: 1810 nM for the first, 102 nM for the second.

Going from `COc1cc2ncc(-c3nc(N[C@H]4CNCC[C@@H]4F)ncc3F)n2nc1C1CC1` [Compound 1a, 4-(6-cyclopropyl-7-methoxyimidazo[1,2-b]pyridazin-3-yl)-5-fluoro-N-((3S,4S)-4-fluoropiperidin-3-yl)pyrimidin-2-amine] to `COc1cc2ncc(-c3nc(N[C@H]4CNCC[C@@H]4F)ncc3F)n2nc1C1COC1` [Compound 92a, 5-fluoro-N-((3S,4S)-4-fluoropiperidin-3-yl)-4-(7-methoxy-6-(oxetan-3-yl)imidazo[1,2-b]pyridazin-3-yl)pyrimidin-2-amine], the IC50 rises from 1 nM to 4 nM (4-fold).

Going from `FC(F)COc1cc2ncc(-c3ccnc(N[C@H]4CNCC[C@@H]4F)n3)n2nc1C1CC1` [Compound 4a, 4-(6-cyclopropyl-7-(2,2-difluoroethoxy)imidazo[1,2-b]pyridazin-3-yl)-N-((3 S,4S)-4-fluoropiperidin-3-yl)pyrimidin-2-amine] to `F[C@H]1CCNC[C@@H]1Nc1nccc(-c2cnc3cc(OC4CC4)c(C4CC4)nn23)n1` [Compound 12a, 4-(7-cyclopropoxy-6-cyclopropylimidazo[1,2-b]pyridazin-3-yl)-N-((3S,4S)-4-fluoropiperidin-3-yl)pyrimidin-2-amine], the IC50 falls from 4 nM to < 0.5 nM.

Compared with `COc1cc2ncc(-c3nc(N[C@H]4CNCC[C@@H]4F)ncc3F)n2nc1C(C)(C)O` [Compound 45a, 2-(3-(5-fluoro-2-(((3S,4S)-4-fluoropiperidin-3-yl)amino)pyrimidin-4-yl)-7-methoxyimidazo[1,2-b]pyridazin-6-yl)propan-2-ol], `COc1cc2ncc(-c3nc(N[C@H]4CNCC[C@@H]4F)ncc3F)n2nc1C1CC(F)(F)C1` [Compound 49a, 4-(6-(3,3-difluorocyclobutyl)-7-methoxyimidazo[1,2-b]pyridazin-3-yl)-5-fluoro-N-((3S,4S)-4-fluoropiperidin-3-yl)pyrimidin-2-amine] is lower in IC50: 44 nM for the first, < 0.5 nM for the second. The second is the more potent here.

Going from `CC(C)(O)c1ccc2ncc(-c3nc(N[C@@H]4CCCNC4)ncc3F)n2c1` [Compound 48a, (R)-2-(3-(5-fluoro-2-(piperidin-3-ylamino)pyrimidin-4-yl)imidazo[1,2-a]pyridin-6-yl)propan-2-ol] to `CC(C)(O)c1cn2c(-c3nc(N[C@H]4CNCC[C@@H]4F)ncc3F)cnc2cn1` [Compound 100a, 2-(3-(5-fluoro-2-(((3S,4S)-4-fluoropiperidin-3-yl)amino)pyrimidin-4-yl)imidazo[1,2-a]pyrazin-6-yl)propan-2-ol], the IC50 rises from 141 nM to 4250 nM (30-fold).

`COc1cc2ncc(-c3ccnc(N[C@H]4CNCC[C@@H]4F)n3)n2nc1C1CCC1` [Compound 79a, 4-(6-cyclobutyl-7-methoxyimidazo[1,2-b]pyridazin-3-yl)-N-((3S,4S)-4-fluoropiperidin-3-yl)pyrimidin-2-amine] and `COc1cc2ncc(-c3nc(N[C@H]4CNCC[C@@H]4F)ncc3F)n2nc1N1CCCS1(=O)=O` [Compound 112a, 2-(3-(5-fluoro-2-(((3S,4S)-4-fluoropiperidin-3-yl)amino)pyrimidin-4-yl)-7-methoxyimidazo[1,2-b]pyridazin-6-yl)isothiazolidine 1,1-dioxide] cannot be ordered by IC50: < 0.5 nM for the first, < 0.5 nM for the second.

Work on `COc1cc2ncc(-c3nc(N[C@H]4CNC[C@@H]4F)ncc3F)n2nc1N1CCCS1(=O)=O` [Compound 111a, 2-(3-(5-fluoro-2-(((3S,4S)-4-fluoropyrrolidin-3-yl)amino)pyrimidin-4-yl)-7-methoxyimidazo[1,2-b]pyridazin-6-yl)isothiazolidine 1,1-dioxide] yielded an IC50 of 77 nM.
